Experiments:
[1] = test system: LOX Human Melanoma Xenograph; test: Dolastatin 10 in vivo, LOX human melanoma xenograph; conditions: nude mouse
Text: (§1) The synthesis of potentially useful peptides presents one of the most essential and promising approaches to new types of anticancer and immunosuppressant drugs. The Dolastatins, an unprecedented series of linear and cyclic antineoplastic and/or cytostatic peptides isolated from Indian Ocean sea hare Dolabella auricularia represent excellent leads for synthetic modification. The very productive sea hare Dolabella auricularia has produced a number of structurally distinct peptides with excellent antineoplastic activity. Presently Dolastatin 10, a linear pentapeptide, represents the most important member and is a potentially useful antineoplastic agent. […] Recently the total synthesis and absolute configuration of this structurally unique and biologically active peptide was discovered.

[2] = test system: OVCAR-3 Human Ovary Xenograph; test: Dolastatin 10 in vivo, OVCAR-3 human ovary xenograph; conditions: OVCAR-3 xenograph, nude mouse, 40 μg/kg
Text: as §1

[3] = test system: Human Mammary Xenograph; test: Dolastatin 10 in vivo, human mammary xenograph; conditions: nude mouse, 26 μg/kg
Text: as §1

[4] = test system: KM20L2; test: Human cancer cell line growth inhibition, Colon KM20L2; type: cell-based; conditions: Colon KM20L2, 48 hrs
Text: (§2) Current research in the control of cancer in the United States is coordinated by the National Cancer Institute (NCI). To determine whether a substance has anti-cancer properties, the NCI has established a systematic protocol. […] The protocol, and the established statistical means for analyzing the results obtained by the standardized testing are fully described in the literature. See: Boyd, Dr. Michael R., Principles & Practice of Oncology, PPO Updates, Volume 3, Number 10, October 1989, for an in depth description of the testing protocol; and Paull K. D., "Display and Analysis of Patterns of Differential Activity of Drugs Against Human Tumor Cell Lines; Development of Mean Graph and COMPARE Algorithm" Journal of the National Cancer Institute Reports, Vol. 81, No. 14, Page 1088, Jul. 14, 1989 for a description of the methods of statistical analysis employed to evaluate the test results. Both of these references are incorporated herein by this reference thereto.
(§3) ED50 (P388) and GI50 (HTCL) identify the drug dose which reduces the percent tumor/cell growth to 50%. There is no mathematical difference between ED50 and GI50, both of which are calculated using the same formula. The only difference is historical usage.
(§4) TGI, means "Total Growth Inhibition" and identifies the drug dose needed to yield zero percent growth, i.e. there are just as many cells at the end of the experiment as were present at the beginning. Whether just as many cells were killed as were produced (steady state), or no growth occurred (total inhibition) cannot be distinguished.
(§5) LC50, means "Lethal Concentration 50%", and identifies the drug concentration which reduces to one-half of the cells originally present at the beginning of the experiment.
(§6) Each drug is tested at five (5) doses: 100 - 10 - 1 - 0.1 - 0.01 - μg/ml. Percent Growths are calculated for each dose. The two (or three) doses with growth values above, below, (or near to) 50% growth are used to calculate the ED50 /GI50 values using a linear regression computation. If no dose yields a growth value under 50%, the results are expressed as: ED50 >(highest dose). If no dose yields growth higher than 50% growth, then ED50 <(lowest dose). Similar calculations are performed for the TGI at 0% growth, and at -50% growth for the LC50.
(§7) At the start of each experiment, cells from the in vitro cell cultures are inoculated into the appropriate tubes or microtiter plates. One set of control tubes/plates is immediately counted to determine the number of cells at the start of the experiment. This is the "baseline count" or "Tzero reading". At the end of the experiment (48 hrs later), a second set of control tubes/plates is analyzed to determine the "Control Growth" value. The growth (or death) of cells relative to the initial quantity of cells is used to define the "Percent of Growth."

[5] = test system: A498; test: Human cancer cell line growth inhibition, Renal A498; type: cell-based; conditions: Renal A498, 48 hrs
Text: as §2, §3, §4, §5, §6, §7

[6] = test system: OVCAR-3; test: Human cancer cell line growth inhibition, Ovarian OVCAR-3; type: cell-based; conditions: Ovarian OVCAR-3, 48 hrs
Text: as §2, §3, §4, §5, §6, §7

[7] = test system: SK-MEL-5; test: Human cancer cell line growth inhibition, Melanoma SK-MEL-5; type: cell-based; conditions: Melanoma SK-MEL-5, 48 hrs
Text: as §2, §3, §4, §5, §6, §7

[8] = test system: NCI-H460; test: Human cancer cell line growth inhibition, Lung-NSC NCI-H460; type: cell-based; conditions: Lung-NSC NCI-H460, 48 hrs
Text: as §2, §3, §4, §5, §6, §7

[9] = test system: SF-295; test: Human cancer cell line growth inhibition, CNS SF-295; type: cell-based; conditions: CNS SF-295, 48 hrs
Text: as §2, §3, §4, §5, §6, §7

[10] = test system: PS-388 Mouse Leukemia; test: PS-388 mouse leukemia cell growth inhibition (ED50); type: cell-based; conditions: Mouse Leukemia PS-388
Procedure: as §3, §6, §7

| Substance | GI-50 [4] [µg/mL] | LC-50 [4] [µg/mL] | TGI [4] [µg/mL] | GI-50 [5] [µg/mL] | LC-50 [5] [µg/mL] | TGI [5] [µg/mL] | GI-50 [6] [µg/mL] | LC-50 [6] [µg/mL] | TGI [6] [µg/mL] | GI-50 [7] [µg/mL] | LC-50 [7] [µg/mL] | TGI [7] [µg/mL] | GI-50 [8] [µg/mL] | LC-50 [8] [µg/mL] | TGI [8] [µg/mL] | GI-50 [9] [µg/mL] | LC-50 [9] [µg/mL] | TGI [9] [µg/mL] | ED-50 [10] [µg/mL] | other results |
| --- | --- | --- | --- | --- | --- | --- | --- | --- | --- | --- | --- | --- | --- | --- | --- | --- | --- | --- | --- | --- |
| Dolastatin 10 |  |  |  |  |  |  |  |  |  |  |  |  |  |  |  |  |  |  |  | T/C ([1]; 3.25 μg/kg): 170; cures ([1]; 3.25 μg/kg): 17%; cures ([1]; 6.5 μg/kg): 33%; cures ([1]; 13 μg/kg): 50%; cures ([1]; 26 μg/kg): 67%; T/C ([1]; 52 μg/kg): toxic; T/C [2]: 300; T/C [3]: Toxic |
| Dov--Val--Dil--Dap--His--OMe [10b] | 0.00099 | > 0.01 | > 0.01 | > 0.01 | > 0.01 | > 0.01 | 0.00071 | > 0.01 | > 0.01 | 0.0008 | > 0.01 | > 0.01 | > 0.01 | > 0.01 | > 0.01 | > 0.01 | > 0.01 | > 0.01 | > 0.01 |  |
| Dov--Val--Dil--Dap--N^ε --Z--Lys--OMe [10a] | > 0.01 | > 0.01 | > 0.01 | > 0.01 | > 0.01 | > 0.01 | 0.0069 | > 0.01 | > 0.01 | 0.003 | > 0.01 | > 0.01 | > 0.01 | > 0.01 | > 0.01 | > 0.01 | > 0.01 | > 0.01 | > 0.01 |  |
| N^α,N^ε --di--Z--Lys--Val--Dil--Dap--His--OMe [11a] | 0.29 | > 1 | > 1 | > 1 | > 1 | > 1 | 0.12 | > 1 | 0.67 | 0.08 | > 1 | > 1 | 0.27 | > 1 | > 1 | 0.67 | > 1 | > 1 | > 1 |  |
| N^γ,N^γ,N^α --tri--Z--Arg--Val--Dil--Dap--Met--OMe [11c] | 0.28 | > 1 | > 1 | 0.6 | > 1 | > 1 | 0.074 | > 1 | 0.74 | 0.38 | > 1 | > 1 | 0.25 | > 1 | 0.62 | 0.13 | > 1 | > 1 | 0.329 |  |
| N^γ,N^γ,N^α --tri--Z--Arg--Val--Dil--Dap--N^ε --Z--Lys--OMe [11b] | > 1 | > 1 | > 1 | > 1 | > 1 | > 1 | > 1 | > 1 | > 1 | > 1 | > 1 | > 1 | > 1 | > 1 | > 1 | > 1 | > 1 | > 1 | 0.513 |  |
